Data set [1] deals with MDA-MB-231 breast cancer cell line. Nature of the data set: Crystal Violet antiproliferative assay, MDA-MB-231. The format is cell-based. To be noted: Homo sapiens, MDA-MB-231, 48 h, 48 h of incubation, mean ± S.D. of three separate experiments. The protocol: (§1) The in vitro antiproliferative activity of the newly synthesized conjugates 4a–n and 7a–d was evaluated against breast cancer MDA-MB-231 and MCF-7 cell lines, following the Crystal Violet (CV) cell cytotoxicity assay. Doxorubicin was included in this assay as a positive control, and Sunitinib was used as a reference drug.
(§2) Breast cancer cell lines MDA-MB-231 and MCF-7 cells were obtained from VACSERA Tissue Culture Unit. The cells were propagated in DMEM supplemented with 10% heat-inactivated fetal bovine serum, 1% L-glutamine (2.5 mM), HEPES (4-(2-hydroxyethyl)-1-piperazineethanesulfonic acid) buffer (10 mM) and 50 µg/mL gentamycin. All cells were maintained at 37 °C in a humidified atmosphere with 5% CO2 and were sub-cultured two times a week. Cytotoxicity was determined following the Crystal Violet (CV) cell cytotoxicity assay.
(§3) Test samples were dissolved in DMSO and kept at a stock concentration of 100 mM. Exponentially growing cells were collected using 0.25% Trypsin-EDTA and seeding was done at a density of 3000 cells/well in 96-well plates. After 24 h, the monolayer cultured cells were washed with sterile phosphate buffered saline (0.01 M pH 7.2) and simultaneously the cells were treated with […] from 10 different dilutions of the test compounds as well as Doxorubicin was […] Control wells were exposed to the same concentration of vehicle, DMSO (1%) used in the highest concentration of the test samples. Cell viability was >99% compared to untreated cells. The number of the surviving cells was determined by staining the cells with crystal violet followed by cell lysing using 33% glacial acetic acid. The absorbance was measured at 490 nm using ELISA reader (Thermo Fisher Scientific, Waltham, MA, USA) after gentle shaking. The absorbance values from untreated cells were considered as 100% proliferation.
(§4) The number of viable cells was determined using ELISA reader as previously mentioned and the percentage of viability was calculated as […] where ODt is the mean optical density of wells treated with the test sample and ODc is the mean optical density of untreated cells. The 50% inhibitory concentration (IC50) was estimated from graphic plots of the dose response curve for each conc. using GraphPad Prism software, Version 5 (San Diego, CA, USA). The data presented are the mean of at least three separate experiments.

Data set [2] relates to MDA-MB-231 cells. In words: Cell cycle analysis by DNA flow cytometry. The format is cell-based. The note with it: 24 h at IC50 concentration. The protocol: The effect of hybrid 4m on cell cycle progression was evaluated in TNBC MDA-MB-231 cells after 24 h of treatment (Figure 4). Such impact was illustrated by DNA flow cytometric assay where MDA-MB-231 cells were treated with conjugate 4m at its IC50 concentration.
Subsequently, the treated cells were collected by centrifugation, fixed in ice-cold 70% (v/v) ethanol, washed with PBS, re-suspended with 100 μg/mL RNase, stained with 40 μg/mL PI, and analyzed by flow cytometry using FACS Calibur (Becton Dickinson, BD, Franklin Lakes, NJ, USA). The cell cycle distributions were calculated using CellQuest software 5.1 (Becton Dickinson).
A general note: Flow cytometry measures light scatter and fluorescence of single cells or particles in a stream.

In the next data set the test system is caspase-3. Nature of the data set: ELISA immunoassay of active caspase-3 level in MDA-MB-231 cells. In kind it is cell-based. To be noted: MDA-MB-231 cells treated at IC50 concentration, 48 h. The source says:
The down-regulation of the antiapoptotic Bcl-2 leads to an increase in the levels of free pro-apoptotic Bax which in turn accumulates at the inner mitochondrial membrane forming channels, altering membrane permeability. Accordingly, the apoptotic factors can leak into the cytoplasm resulting in the caspases cascade activation. As a key executioner protease, caspase-3 is activated by upstream initiator caspases as caspase-9 [48]. Thence, the elevated Bax/Bcl-2 ratios obtained herein triggered the examination of the protein expression levels of active caspases-3. Treatment of TNBC MDA-MB-231 cells with conjugates 4m and 7b led to a significant increase in the active caspase-3 levels by 6.4 and 4.9 folds, respectively, compared to control (Table 3, Figure 3).
(§5) The levels of the apoptotic markers (Bax, caspase-3) as well as the antiapoptotic marker Bcl-2 were determined using ELISA colorimetric kits per the manufacturer’s instructions, as reported earlier. MDA-MB-231 cells were cultured as a monolayer in T-25 flasks and were seeded to attain 30% confluency prior to treatment. […] At the end of treatment, cells were collected via trypsinization and centrifuged at 10,000 rpm. The pellet was then rinsed with PBS and lysed in RIPA lysis buffer at 4 °C for 45 min, then centrifuged at 14,000 rpm for 20 min to remove the cellular debris. Lysates were then collected and stored at −80 °C for later protein determination using Pierce BCA Protein Assay Kit (Pierce Biotechnology, Rockford, IL, USA) according to manufacturer’s recommendations.
(§6) The cell lysate was diluted 10 times, and 100 μL ([…]) was added to the wells of […] that were pre-coated with primary antibodies specific to Bax, Bcl-2 and caspase-3 proteins, respectively. A secondary biotin-linked antibody specific to the protein captured by the primary antibody was further added to bind the captured protein, forming a “sandwich” of specific antibodies around the desired protein in the cell lysate. The streptavidin-HRP complex was then used to bind the biotin-linked secondary antibody through its streptavidin portion. The HRP domain reacted with the added TMB substrate to form a colored product that measured at 450 nm by a plate reader (ChroMate-4300, Orlando, FL, USA) after the reaction was terminated via the addition of stop solution.
A general note: ELISA stands for enzyme-linked immunosorbent assay.

Data set [3] has as its system lung fibroblast cell line (WI-38). In words: Crystal violet cytotoxicity towards nontumorigenic WI-38. To be noted: Homo sapiens, nontumorigenic cells, mean ± S.D. of three separate experiments. In kind it is cell-based. How it is done: (§7) The cytotoxic activity of the active conjugates towards MDA-MB-231 cells (4c–e, 4g, 4l–n and 7a–d) was examined against nontumorigenic human lung fibroblast cell line (WI-38) and human breast epithelial cell line (MCF-10A) to investigate the potential safety of the newly prepared conjugates towards the normal cells. […] The results were expressed as IC50 values, and selectivity index was calculated (Table 2).
(§8) The cytotoxic activity of the active conjugates towards nontumorigenic human lung fibroblast cell line (WI-38) and human breast epithelial cell line (MCF-10A) was determined using Crystal violet (CV) cell cytotoxicity assay according to the previously published procedures.

In another data set the test system is Bax. Nature of the data set: ELISA immunoassay of Bax level in MDA-MB-231 cells. The note with it: MDA-MB-231 cells treated at IC50 concentration; for Bax / Bax, number of folds of control: 48 h; for Bax/Bcl-2: control 3.9. In kind it is cell-based. The protocol: (§9) In our study, we investigated the effect of conjugates 4m and 7b towards the level of the antiapoptotic Bcl2 and the level of the pro-apoptotic Bax, (Table 3, Figure 2).
as §5, §6

In data set [4] the test system is breast epithelial cell line (MCF-10A). In words: Crystal violet cytotoxicity towards nontumorigenic MCF-10A. In kind it is cell-based, human. To be noted: for IC50: Homo sapiens, MCF-10A, nontumorigenic cells, mean ± S.D. of three separate experiments; for Selectivity Index (MCF-10A/MDA-MB-231): ratio of IC50 MCF-10A to IC50 MDA-MB-231. How it is done: as §7, §8

Another data set relates to Bcl-2. In words: ELISA immunoassay of Bcl-2 level in MDA-MB-231 cells. The format is cell-based. To be noted: MDA-MB-231 cells treated at IC50 concentration; for Bcl-2 / Bcl-2, number of folds of control: 48 h. The protocol:
as §9, §5, §6

For data set [5], the system named is MDA-MB-231 cells. Nature of the data set: Annexin V-FITC/PI apoptosis assay. The note with it: MDA-MB-231 at IC50 concentration. In kind it is cell-based. How it is done: Annexin V-based flow cytometry assay elucidates either that cell death is achieved via programmed apoptosis or nonspecific necrosis.
Phosphatidylserine externalization was assayed using Annexin V-FITC/PI apoptosis detection kit (BD Biosciences, San Jose, CA, USA) according to the manufacturer’s instructions, as reported earlier. MDA-MB-231 cells were cultured to a monolayer then treated with conjugate 4m at its IC50 concentration as described earlier. Cells were then harvested via trypsinization, and rinsed twice in PBS followed by binding buffer. Moreover, cells were re-suspended in 100 μL of binding buffer with the addition of 1 μL of FITC-Annexin V (Becton Dickinson BD Pharmingen^TM, Heidelberg, Germany) followed by an incubation period of 30 min at 4 °C. Cells were then rinsed in binding buffer and resuspended in 150 μL of binding buffer with the addition of 1 μL of DAPI (1 μg/μL in PBS) (Invitrogen, Life Technologies, Darmstadt, Germany). Cells were then analyzed using the flow cytometer BD FACS Canto II (BD Biosciences, San Jose, CA, USA) and the results were interpreted with FlowJo7.6.4 software (Tree Star, Ashland, OR, USA).

Data set [6] relates to MCF-7 breast cancer cell line. In words: Crystal Violet antiproliferative assay, MCF-7. In kind it is cell-based. To be noted: for IC50: Homo sapiens, MCF7, 48 h, Crystal Violet assay, 48 h of incubation, mean ± S.D. of three separate experiments. How it is done:
as §1, §2, §3, §4

In data set [7] the test system is MCF-7 breast cancer cell line. More on the design: method as in PMID 28802125. The note with it: earlier work of the authors; cited from earlier work.

Read-outs that look alike come from different tables or passages of the source. Where only a bound is given, the exact number is not on record here.

Usually IC50 stands for the midpoint of a concentration-inhibition curve. For orientation: melting point means the temperature, or range, at which the solid turns liquid.

Take `Cc1ccc(N=C2SC(=C3C(=O)Nc4ccc(C)cc43)C(=O)N2c2ccc(C)cc2)cc1` [Compound 4m, 5-(5-Methyl-2-oxoindolin-3-ylidene)-3-(p-tolyl)-2-(p-tolylimino)thiazolidin-4-one]: in [1], it took 7.6 ± 0.5 µM to reach half-maximal inhibition (IC50). Moreover, in the data set on MDA-MB-231 cells [2], the “Arrest in G2-M phase compared to control” value is recorded as 2.5 folds and the “Rise in percentage of cells at Sub-G1 compared to control” value amounted to 4 folds. In the data set with caspase-3, the Caspase-3 was 0.19 ± 0.01 ng/mg of Total Protein and the “Caspase-3, number of folds of control” value is given as 6.4 folds of control. Moreover, half-maximal inhibition in data set [3] (IC50) required 49.1 ± 1.9 µM. Besides, in the data set with Bax, the “Boost of Bax/Bcl-2 ratio compared to control” value came out at 33 folds; the Bax is reported as 274.8 ± 13.5 pg/mg of Total Protein; the “Bax, number of folds of control” value is 11.1 folds of control; the Bax/Bcl-2 stood at 130.5. Moreover, in data set [4], the IC50 was 73.1 ± 2.7 µM and the “Selectivity Index (MCF-10A/MDA-MB-231)” value was found to be 9.6. In the data set with Bcl-2, the “Downregulation of Bcl-2 expression level compared to control” value came to 66.6%; the Bcl-2 is given as 2.1 ± 0.1 ng/mg of Total Protein; the “Bcl-2, number of folds of control” value is given as 0.33 folds of control. Also, the “Increase of annexin V-FITC-positive apoptotic cells compared with control” value in the data set on MDA-MB-231 cells [5] is on record as “about 6 folds”. Also, the “Percent of annexin V-FITC-positive apoptotic cells, early and late (UR + LR)” value in the data set on MDA-MB-231 cells [5] (control 1.92%) is 11.43%. This compound registered an IC50 in [6] of 8.4 ± 0.5 µM. Further, in [6] (IC50 ratio to doxorubicin), the “Decreased activity against MCF-7 relative to doxorubicin” value came to 2.2 fold.
`COc1ccc2c(c1)C(=c1sc3nc4ccccc4n3c1=O)C(=O)N2` [Compound 7b, 2-(5-Methoxy-2-oxoindolin-3-ylidene)benzo[4,5]imidazo[2,1-b]thiazol-3(2H)-one] returned a melting point above 300 °C. In data set [1], this compound had an IC50 of 13.2 ± 1.7 µM. Moreover, in the data set with caspase-3, the Caspase-3 was 0.15 ± 0.01 ng/mg of Total Protein and the “Caspase-3, number of folds of control” value was 4.9 folds of control. Besides, the midpoint of inhibition in data set [3], the IC50, lay at 121 ± 6.9 µM. Moreover, in the data set with Bax, the “Boost of Bax/Bcl-2 ratio compared to control” value is on record as 16 folds; the Bax is given as 180.0 ± 7.3 pg/mg of Total Protein; the “Bax, number of folds of control” value is 7.3 folds of control; the Bax/Bcl-2 was determined as 64.1. Also, in data set [4], the IC50 was 184 ± 8 µM and the “Selectivity Index (MCF-10A/MDA-MB-231)” value stood at 13.9. For the same compound, in the data set on Bcl-2, the “Downregulation of Bcl-2 expression level compared to control” value was found to be 55.1%; the Bcl-2 was 2.8 ± 0.1 ng/mg of Total Protein; the “Bcl-2, number of folds of control” value is 0.45 folds of control. The compound also displayed an IC50 in [6] of 21.7 ± 1.5 µM.
Regarding `NS(=O)(=O)c1ccc(/N=C2\NC(=O)/C(=C3/C(=O)Nc4ccc(Cl)cc43)S2)cc1` [compound VI], the 50% inhibitory concentration (IC50) in data set [7] is 3.96 ± 0.21 µM.

Values taken from publication PMC6099623, “Novel Thiazolidinone/Thiazolo[3,2-a]Benzimidazolone-Isatin Conjugates as Apoptotic Anti-proliferative Agents Towards Breast Cancer: One-Pot Synthesis and In Vitro Biological Evaluation” (Molecules : A Journal of Synthetic Chemistry and Natural …, 2018).
